Assay results published in ChEMBL document CHEMBL5236665, “Accumulation of lankamycin derivative with a branched-chain sugar from a blocked mutant of chalcose biosynthesis in Streptomyces rochei 7434AN4” (2023).

What was measured:
Micrococcus luteus [1] = assay: Antimicrobial activity against Micrococcus luteus assessed as inhibition of microbial growth at 0.03 to 3.33 ug/ml; format: functional; set-up: scale not given: the % may be the effect or the level left; details: dose 0.03-3.33 µg/ml; at 0.03 to 3.33 µg/mL
Micrococcus luteus [2] = assay: Antimicrobial activity against Micrococcus luteus assessed as inhibition of microbial growth; format: functional

Row | MIC (Micrococcus luteus [2]) [µg/mL] | SMILES | Activity (Micrococcus luteus [1]) [%]
1 | – | CO[C@]1(C)C[C@H](O[C@H]2[C@H](C)[C@@H](O[C@@H]3O[C@H](C)C[C@](O)(C(C)=O)[C@H]3O)[C@@H](C)C[C@](C)(O)C(=O)[C@H](C)[C@@H](OC(C)=O)[C@@H](C)[C@@H]([C@@H](C)[C@H](C)O)OC(=O)[C@@H]2C)O[C@@H](C)[C@H]1OC(C)=O | 50
2 | 1 | CO[C@H]1C[C@@H](C)O[C@@H](O[C@@H]2[C@@H](C)[C@H](O[C@H]3C[C@@](C)(OC)[C@H](OC(C)=O)[C@H](C)O3)[C@@H](C)C(=O)O[C@H]([C@@H](C)[C@H](C)O)[C@H](C)[C@H](OC(C)=O)[C@@H](C)C(=O)[C@@](C)(O)C[C@@H]2C)[C@@H]1O | –
